Experimental data: patent US9133492B2, “Kanamycin compound, kanamycin-producing Streptomyces species bacterium, and method of producing kanamycin” (iNtRON Biotechnology, Inc., priority 2010, dated 2015)
≈ marks a conversion by molar mass, not a printed value. Read-outs that look alike come from different tables or passages of the source.

Columns and labels:
[1] = system: E. coli ATCC 25922(Kan^S); test: microbe, parasite or virus in culture; type: cell-based, Escherichia coli
Description: (§1) In one embodiment of the present invention, antibacterial spectra against kanamycin intermediates and analogs produced by the present invention were measured. Typical gram-negative strains (E. coli and Pseudomonas aeruginosa) and four clinically isolated strains were employed to check the antibacterial spectra (See table 2).
(§2) To check the antibacterial spectra of kanamycin biosynthetic intermediates and their analogs, a total six kinds of Gram-negative bacteria such as kanamycin-sensitive (Kan^S) E. coli ATCC 25922, kanamycin-resistant (Kan^R) Pseudomonas aeruginosa ATCC 27853, Kan^S E. coli CCARM (Culture Collection of Antimicrobial Resistant Microbes, Korea) 1A020, Kan^R E. coli CCARM 1A023, amikacin-sensitive (Amk^S) P. aeruginosa CCARM 2206, and amikacin-resistance (Amk^R) P. aeruginosa CCARM 2178 were used.
(§3) Minimum inhibitory concentrations (MICs) of various kanamycin-related pseudodi- and tri-saccharides and AHBA conjugated kanamycin analogs (except for compounds 16, 18, 19, and 20) were measured by broth microdilution according to the Clinical and Laboratory Standard Institute (CLSI, formerly NCCLS). As described in Example 2, gram-negative E. coli strains, P. aeruginosa strains, and clinically isolated strains were incubated in Mueller-Hinton broth (BD Science) at 30° C. […] An aliquot of water was used as a negative control group. The growth of the strains was observed using the Labsystems Bioscreen C, and the minimum concentrations of the aminoglycoside diluted in the broth medium to inhibit the growth of the bacterial strains were measured.

[2] = system: E. coli CCARM 1A020(Kan^S); test: MIC by broth microdilution (CLSI), antibacterial spectra; type: cell-based, Escherichia coli
Description: as §1, §2, §3

[3] = system: E. coli CCARM 1A023(Kan^R); test: as above; type: cell-based, Escherichia coli
Description: as §1, §2, §3

[4] = system: P. aeruginosa CCARM 2178(Amk^R); test: as above; type: cell-based, Pseudomonas aeruginosa; details: for MIC / activity: clinically isolated amikacin-resistant P. aeruginosa strain
Description: as §1, §2, §3

[5] = system: P. aeruginosa CCARM 2206(Amk^S); test: as above; type: cell-based, Pseudomonas aeruginosa
Description: as §1, §2, §3

[6] = system: Gram-negative bacteria (E. coli and Pseudomonas aeruginosa test strains); test: Antibacterial spectra, comparison across test strains; type: cell-based; details: for antibacterial activity, 3″-amino vs 3″-hydroxy derivatives: against the test strains, compared with corresponding 3″-hydroxy derivatives 5, 13, 14 and 11; for antibacterial activity, 6′-amino vs 6′-hydroxy pseudodisaccharides: against kanamycin-sensitive E. coli strains, compared with 6′-hydroxy derivatives 3 and 9; for antibacterial activity, 6′-amino vs 6′-hydroxy pseudotrisaccharides: against kanamycin-sensitive test strains, compared with compounds 6 and 12
Description: as §1, §2, §3

[7] = system: P. aeruginosa ATCC 27853(Kan^R); test: microbe, parasite or virus in culture; type: cell-based; details: Pseudomonas aeruginosa, ATCC27853
Description: as §1, §2, §3

[8] = E. coli ATCC 25922, kanamycin-sensitive typical strain
[9] = E. coli CCARM 1A020, kanamycin-sensitive clinically isolated strain
[10] = E. coli CCARM 1A023, kanamycin-resistant clinically isolated strain
[11] = P. aeruginosa CCARM 2178, amikacin-resistant clinically isolated strain
[12] = P. aeruginosa CCARM 2206, amikacin-sensitive clinically isolated strain
[13] = Pseudomonas aeruginosa, CCARM2178
[14] = Pseudomonas aeruginosa, CCARM2206
[15] = Escherichia coli, E. coli CCARM 1A023, kanamycin-resistant clinically isolated strain, read-out: MIC
[16] = Pseudomonas aeruginosa, CCARM2178, P. aeruginosa CCARM 2178, amikacin-resistant clinically isolated strain, read-out: MIC
[17] = Pseudomonas aeruginosa, CCARM2206, P. aeruginosa CCARM 2206, amikacin-sensitive clinically isolated strain, read-out: MIC

| Compound | MIC [1, 8] [µg/mL] | MIC [2, 9] | MIC [3, 10] | MIC [4, 11] | MIC [5, 12] | also measured |
| --- | --- | --- | --- | --- | --- | --- |
| N[C@H]1[C@@H](O[C@H]2[C@H](O)[C@@H](O[C@H]3O[C@H](CO)[C@@H](O)[C@H](O)[C@H]3O)[C@H](N)C[C@@H]2N)O[C@H](CO)[C@@H](O)[C@@H]1O [Compound 5, 3″-deamino-3″-hydroxykanamycin C] | 128 (≈ 264 µM) | NA (NA represents no activity at 128 μg/mL) | NA (NA represents no activity at 128 μg/mL) | NA (NA represents no activity at 128 μg/mL) | NA (NA represents no activity at 128 μg/mL) | – |
| N[C@@H]1[C@@H](O)[C@@H](O[C@@H]2[C@@H](O)[C@H](O[C@H]3O[C@H](CO)[C@@H](O)[C@H](O)[C@H]3N)[C@@H](N)C[C@H]2N)O[C@H](CO)[C@H]1O [Compound 6, kanamycin C] | 16 (≈ 33 µM) | 16 µg/mL (≈ 33 µM) | NA (NA represents no activity at 128 μg/mL) | NA (NA represents no activity at 128 μg/mL) | 64 µg/mL (≈ 132 µM) | antibacterial activity, 3″-amino vs 3″-hydroxy derivatives [6]: increased activity |
| NC[C@H]1O[C@H](O[C@H]2[C@H](O)[C@@H](O)[C@H](N)C[C@@H]2N)[C@H](N)[C@@H](O)[C@@H]1O [Compound 4, neamine] | – | – | – | – | – | MIC ([1]; Escherichia coli, ATCC25922): 64 µg/mL (≈ 199 µM); MIC [7]: > 128 µg/mL; MIC ([2]; Escherichia coli): 64 µg/mL (≈ 199 µM); MIC ([3]; Escherichia coli): > 128 µg/mL; MIC [4, 13]: > 128 µg/mL; MIC [5, 14]: 128 µg/mL (≈ 397 µM); antibacterial activity, 6′-amino vs 6′-hydroxy pseudodisaccharides [6]: more active |
| NCC[C@H](O)C(=O)N[C@@H]1C[C@H](N)[C@@H](O[C@H]2O[C@H](CO)[C@@H](O)[C@H](O)[C@H]2O)[C@H](O)[C@H]1O[C@H]1O[C@H](CO)[C@@H](O)[C@H](N)[C@H]1O [Compound 17, 1-N-AHBA-kanamycin X] | – | – | – | – | – | MIC ([1]; Escherichia coli, ATCC25922): 16 µg/mL (≈ 27.3 µM); MIC [7]: 16 µg/mL (≈ 27.3 µM); MIC ([2]; Escherichia coli, E. coli CCARM 1A020, kanamycin-sensitive clinically isolated strain, read-out: MIC): 32 µg/mL (≈ 54.6 µM); MIC [3, 15]: 16 µg/mL (≈ 27.3 µM); MIC [4, 16]: 64 µg/mL (≈ 109 µM); antibacterial effect ([4]; amikacin-resistant P. aeruginosa): antibacterial effect; MIC / activity [4]: ~64; MIC [5, 17]: 0.25 µg/mL (≈ 0.426 µM); antibacterial activity ([6]; against all kanamycin and amikacin-resistant test strains): strong antibacterial activity; antibacterial activity compared with amikacin (compound 15) ([6]; against all the test strains): improved antibacterial activity |
| N[C@@H]1C[C@H](N)[C@@H](O[C@H]2O[C@H](CO)[C@@H](O)[C@H](O)[C@H]2O)C(O)[C@H]1O[C@H]1O[C@H](CO)[C@@H](O)[C@H](O)[C@H]1O (some centres unmarked) [Compound 11, 3″-deamino-3″-hydroxykanamycin X] | – | NA (NA represents no activity at 128 μg/mL) | NA (NA represents no activity at 128 μg/mL) | NA (NA represents no activity at 128 μg/mL) | NA (NA represents no activity at 128 μg/mL) | – |
| NCC[C@H](O)C(=O)N[C@@H]1C[C@H](N)[C@@H](O[C@H]2O[C@H](CN)[C@@H](O)[C@H](O)[C@H]2O)[C@H](O)[C@H]1O[C@H]1O[C@H](CO)[C@@H](O)[C@H](N)[C@H]1O [Compound 15, amikacin, reference compound] | – | – | – | – | – | MIC ([1]; Escherichia coli, ATCC25922): 128 µg/mL (≈ 219 µM); MIC [7]: 64 µg/mL (≈ 109 µM); MIC ([2]; Escherichia coli): 128 µg/mL (≈ 219 µM); MIC [3, 15]: 32 µg/mL (≈ 54.6 µM); MIC [4, 16]: > 128 µg/mL; MIC / activity [4]: no activity; MIC [5, 17]: ≤ 0.25 µg/mL |
| kanamycin D [Compound 14] | – | 128 µg/mL | NA (NA represents no activity at 128 μg/mL) | NA (NA represents no activity at 128 μg/mL) | NA (NA represents no activity at 128 μg/mL) | – |
| NCC1OC(OC2C(N)CC(N)C(O)C2O)C(O)C(O)C1O (centres unmarked) [Compound 10, 2′-deamino-2′-hydroxyneamine] | 64 (≈ 198 µM) | 64 µg/mL (≈ 198 µM) | NA (NA represents no activity at 128 μg/mL) | NA (NA represents no activity at 128 μg/mL) | 128 µg/mL (≈ 396 µM) | antibacterial activity, 6′-amino vs 6′-hydroxy pseudodisaccharides [6]: more active |
| N[C@@H]1[C@@H](O)[C@@H](O[C@@H]2[C@@H](O)[C@H](O[C@H]3O[C@H](CO)[C@@H](O)[C@H](O)[C@H]3O)[C@@H](N)C[C@H]2N)O[C@H](CO)[C@H]1O [Compound 12, kanamycin X] | 16 (≈ 33 µM) | 16 µg/mL (≈ 33 µM) | NA (NA represents no activity at 128 μg/mL) | NA (NA represents no activity at 128 μg/mL) | 64 µg/mL (≈ 132 µM) | antibacterial activity, 3″-amino vs 3″-hydroxy derivatives [6]: increased activity |
| NC1CC(N)C(OC2OC(CO)C(O)C(O)C2O)C(O)C1O (centres unmarked) [Compound 9, 2′-deamino-2′-hydroxyparomamine] | – | 128 µg/mL (≈ 395 µM) | NA (NA represents no activity at 128 μg/mL) | NA (NA represents no activity at 128 μg/mL) | NA (NA represents no activity at 128 μg/mL) | – |
| N[C@H]1[C@@H](O[C@H]2[C@H](O)[C@@H](O)[C@H](N)C[C@@H]2N)O[C@H](CO)[C@@H](O)[C@@H]1O [Compound 3, paromamine] | – | – | – | – | – | MIC ([1]; Escherichia coli, ATCC25922): 128 µg/mL (≈ 396 µM); MIC [7]: > 128 µg/mL; MIC ([2]; Escherichia coli): 128 µg/mL (≈ 396 µM); MIC ([3]; Escherichia coli): > 128 µg/mL; MIC [4, 13]: > 128 µg/mL; MIC [5, 14]: > 128 µg/mL |
| NC[C@H]1O[C@H](O[C@H]2[C@H](O)[C@@H](O[C@H]3O[C@H](CO)[C@@H](O)[C@H](N)[C@H]3O)[C@H](N)C[C@@H]2N)[C@H](N)[C@@H](O)[C@@H]1O [Compound 7, kanamycin B, reference compound] | 2 (≈ 4.14 µM) | 4 µg/mL (≈ 8.27 µM) | NA (NA represents no activity at 128 μg/mL) | NA (NA represents no activity at 128 μg/mL) | 32 µg/mL (≈ 66.2 µM) | antibacterial activity, 6′-amino vs 6′-hydroxy pseudotrisaccharides [6]: more active; antibacterial activity, 3″-amino vs 3″-hydroxy derivatives [6]: increased activity |
| NC[C@@H]1O[C@@H](O[C@H]2[C@H](O)[C@@H](O[C@H]3O[C@H](CO)[C@@H](O)[C@H](N)[C@H]3O)[C@H](N)C[C@@H]2N)[C@@H](O)[C@H](O)[C@H]1O [Compound 8, kanamycin A, reference compound] | 2 (≈ 4.13 µM) | 4 µg/mL (≈ 8.26 µM) | NA (NA represents no activity at 128 μg/mL) | NA (NA represents no activity at 128 μg/mL) | 16 µg/mL (≈ 33 µM) | antibacterial activity, 6′-amino vs 6′-hydroxy pseudotrisaccharides [6]: more active; antibacterial activity, 3″-amino vs 3″-hydroxy derivatives [6]: increased activity |
| NC[C@H]1O[C@H](O[C@H]2[C@H](O)[C@@H](O[C@H]3O[C@H](CO)[C@@H](O)[C@H](O)[C@H]3O)[C@H](N)C[C@@H]2N)[C@H](N)[C@@H](O)[C@@H]1O [Compound 13, 3″-deamino-3″-hydroxykanamycin B] | – | 128 µg/mL (≈ 264 µM) | NA (NA represents no activity at 128 μg/mL) | NA (NA represents no activity at 128 μg/mL) | NA (NA represents no activity at 128 μg/mL) | – |
